Twelve compounds from patent publication US11040981B2, “Pyrrolotriazine compounds and methods of inhibiting TAM kinases” (Syros Pharmaceuticals, Inc., priority 2017, dated 2021) can be followed below.

A value given as a limit tells only on which side of the number the result lay.

One assay addresses T1, TYRO3 (Homo sapiens, UniProt Q06418).
T1 sequence (Q06418 41-890): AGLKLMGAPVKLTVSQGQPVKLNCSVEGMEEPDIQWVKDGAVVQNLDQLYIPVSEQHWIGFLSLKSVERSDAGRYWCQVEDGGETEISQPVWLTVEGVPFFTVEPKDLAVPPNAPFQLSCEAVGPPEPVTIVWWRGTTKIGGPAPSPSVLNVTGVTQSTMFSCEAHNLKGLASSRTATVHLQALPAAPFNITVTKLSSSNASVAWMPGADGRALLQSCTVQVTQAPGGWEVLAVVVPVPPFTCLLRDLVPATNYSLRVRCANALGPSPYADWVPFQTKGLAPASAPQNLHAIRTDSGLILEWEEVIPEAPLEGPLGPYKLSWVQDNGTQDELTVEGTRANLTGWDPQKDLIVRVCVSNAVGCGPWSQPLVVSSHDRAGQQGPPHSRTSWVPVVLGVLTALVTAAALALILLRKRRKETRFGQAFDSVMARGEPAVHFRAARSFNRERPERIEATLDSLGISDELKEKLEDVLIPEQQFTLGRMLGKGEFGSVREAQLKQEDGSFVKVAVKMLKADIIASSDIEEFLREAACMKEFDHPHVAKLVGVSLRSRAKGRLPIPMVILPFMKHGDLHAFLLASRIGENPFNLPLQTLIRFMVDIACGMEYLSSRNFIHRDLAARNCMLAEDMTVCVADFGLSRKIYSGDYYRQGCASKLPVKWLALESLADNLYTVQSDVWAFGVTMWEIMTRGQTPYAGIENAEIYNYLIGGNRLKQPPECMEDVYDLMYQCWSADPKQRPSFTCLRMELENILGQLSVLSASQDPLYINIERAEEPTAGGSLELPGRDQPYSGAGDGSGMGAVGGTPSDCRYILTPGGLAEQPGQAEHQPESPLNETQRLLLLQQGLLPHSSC
Briefly: TR-FRET kinase activity assay, TYRO3. It counts as biochemical. Conditions: ATP at Km, 60 minutes. The procedure, abridged:
(§1)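 IC50 reflects the drop in TR-FRET between Eu anti-phosphotyrosine antibody and labelled peptide after a 60-minute room-temperature reaction. Buffer was 50 mM HEPES pH 7.5 with 10 mM MgCl2, 1 mM EGTA, 0.01% Brij 35 and 1 mM DTT, with ATP at Km per enzyme and EDTA quench.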

In another assay the target is T2, AXL (Homo sapiens, UniProt P30530).
T2 sequence (P30530 26-894): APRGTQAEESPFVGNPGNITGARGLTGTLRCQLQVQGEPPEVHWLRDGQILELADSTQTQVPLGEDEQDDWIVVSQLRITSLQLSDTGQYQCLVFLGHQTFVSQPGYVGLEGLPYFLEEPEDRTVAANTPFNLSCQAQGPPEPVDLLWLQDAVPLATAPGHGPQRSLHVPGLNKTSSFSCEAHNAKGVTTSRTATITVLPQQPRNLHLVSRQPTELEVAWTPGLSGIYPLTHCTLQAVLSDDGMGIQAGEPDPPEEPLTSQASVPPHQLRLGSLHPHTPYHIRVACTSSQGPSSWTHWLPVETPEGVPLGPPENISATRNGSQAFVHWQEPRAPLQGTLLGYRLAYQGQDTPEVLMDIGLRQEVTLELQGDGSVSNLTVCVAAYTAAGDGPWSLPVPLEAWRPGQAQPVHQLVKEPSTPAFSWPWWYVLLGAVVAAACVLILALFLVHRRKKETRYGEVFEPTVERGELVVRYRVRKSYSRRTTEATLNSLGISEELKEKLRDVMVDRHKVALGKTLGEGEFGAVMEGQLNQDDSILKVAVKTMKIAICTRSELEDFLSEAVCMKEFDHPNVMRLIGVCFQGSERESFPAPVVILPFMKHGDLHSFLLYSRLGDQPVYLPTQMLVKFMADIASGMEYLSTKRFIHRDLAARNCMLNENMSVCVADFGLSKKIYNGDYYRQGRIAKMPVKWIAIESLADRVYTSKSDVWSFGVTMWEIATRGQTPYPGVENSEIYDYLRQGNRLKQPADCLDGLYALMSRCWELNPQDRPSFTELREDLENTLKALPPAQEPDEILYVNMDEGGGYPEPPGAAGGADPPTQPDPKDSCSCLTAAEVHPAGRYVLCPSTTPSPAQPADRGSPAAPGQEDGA
Briefly: TR-FRET kinase activity assay, AXL. As to conditions: ATP at Km, 60 minutes. It is filed as biochemical. In a few lines:
as §1
On the technique in general: Time-resolved FRET reads energy transfer from a long-lived donor to a nearby acceptor.

For `COC[C@H](C)N(C)c1ncc2c(-c3ccnc(C)c3)cc([C@H]3CC[C@H](OC)CC3)n2n1` [Compound 176, 7-((trans)-4-methoxycyclohexyl)-N-((S)-1-methoxypropan-2-yl)-N-methyl-5-(2-methylpyridin-4-yl)pyrrolo[2,1-f][1,2,4]triazin-2-amine], the IC50 against TYRO3 and against AXL was 1 to 10 µM throughout.

For `COC[C@H](C)Nc1ncc2c(-c3ccc(CN4CCN(C(C)=O)CC4)cc3)cc([C@H]3CC[C@H](O)CC3)n2n1` [Compound 150], the IC50 at TYRO3 and against AXL was ≤ 0.1 µM each time.

Regarding `COC[C@H](C)Nc1ncc2c(-c3ccc(C4(N5CCOCC5)CC4)cc3)cc([C@H]3CC[C@H](O)CC3)n2n1` [Compound 184], the IC50 – broadly, the concentration needed to halve the response being measured – is ≤ 0.1 µM against TYRO3 and 0.1 to 1 µM against AXL.

On to `C[C@@H](COC(F)F)Nc1ncc2c(-c3ccnc(N4CCOC(C(C)(C)O)C4)c3)cc([C@H]3CC[C@H](O)CC3)n2n1` (stereo partly drawn) [Compound 598], for which the IC50 at TYRO3 and on AXL was ≤ 0.1 µM in each case.

Regarding `COCC(C)Nc1ncc2c(-c3ccc(C(C)N4CCCC4)cc3)cc(C3CCC(O)CC3)n2n1` (stereo not drawn) [Compound 166], the half-inhibitory concentration (IC50) against TYRO3 and against AXL was ≤ 0.1 µM throughout.

For the compound `COC[C@H](C)Nc1ncc2c(-c3cnn(C(C)(C)c4nnc(C)s4)c3)cc([C@H]3CC[C@H](O)CC3)n2n1` [Compound 625], the half-inhibitory concentration (IC50) against TYRO3 and against AXL was ≤ 0.1 µM each time.

Regarding `CCC1(O)CCC(c2cc(-c3cnn(C4COC4)c3)c3cnc(NC(C)COC)nn23)CC1` (stereo not drawn) [Compound 615], the half-inhibitory concentration (IC50) on TYRO3 and at AXL was ≤ 0.1 µM in each case.

Take `COC[C@H](C)Nc1ncc2c(-c3cnn(C(C)(C)c4ncc(C)o4)c3)cc(C3CCC(O)CC3)n2n1` (stereo partly drawn) [Compound 628]: the IC50 against TYRO3 and against AXL was ≤ 0.1 µM each time.

Turning to `COC[C@H](C)Nc1ncc2c(N3CC4(COC4)CC3=O)cc([C@H]3CC[C@H](O)CC3)n2n1` [Compound 178], the IC50 was in the range of 0.1 to 1 µM against TYRO3 and 1 to 10 µM at AXL.

Turning to `COC[C@H](C)Nc1ncc2c(-c3ccc(CN4CCOCC4)cc3)cc([C@H]3CC[C@@H](O)CC3)n2n1` [Compound 163, (cis)-4-(2-(((S)-1-methoxypropan-2-yl)amino)-5-(4-(morpholinomethyl)phenyl)pyrrolo[2,1-f][1,2,4]triazin-7-yl)cyclohexanol], the IC50 against TYRO3 and against AXL was ≤ 0.1 µM each time.

For the compound `COC[C@H](C)Nc1ncc2c([C@H]3CC[C@@H](C(=O)N4CCN(C)CC4)CC3)cc([C@H]3CC[C@H](O)CC3)n2n1` [Compound 607], the half-inhibitory concentration (IC50) against TYRO3 and against AXL was ≤ 0.1 µM in each case.

Take `COC[C@H](C)Nc1ncc2c(-c3cccc(CN4CCCC4)c3)cc([C@H]3CC[C@H](O)CC3)n2n1` [Compound 179]: the 50% inhibitory concentration (IC50) is ≤ 0.1 µM on TYRO3 and 0.1 to 1 µM against AXL.
